Experimental data published in patent publication US20200330429A1, “METHOD OF TREATING TRUNCAL ACNE WITH TRIFAROTENE” (priority 2019, published 2020).

Legend:
moderate truncal acne [1] = assay: PERFECT 1, 12-week vehicle-controlled study, truncal acne efficacy; assay type: in vivo, human
Experimental: (§1) A multi-center (United States, Canada, Europe and Russia), 12-week, double-blinded, and vehicle controlled group study with a 1:1 randomization pattern (once daily trifarotene 50 μg/g or vehicle cream) was conducted in subjects with moderate facial and truncal acne. Enrolled patients or caregivers received instruction about how to apply a thin layer of study drug daily at bedtime on the face and self-reachable trunk. Patients were also instructed to cleanse the skin and not to apply moisturizer one hour before or one hour after study drug application. Use of moisturizer was encouraged from the initiation of treatment. Investigators could reduce the frequency of application to alternate days for a maximum of 2 weeks in the first 4 weeks following the Baseline visit when needed to manage irritation. The patients were selected based on the following criteria.
(§2) Inclusion Criteria: • 1. Male or female patients 9 years or older. • 2. Moderate facial acne, defined as: Investigator Global Assessment (IGA) score of 3 on the face. Minimum of 20 inflammatory lesions and 25 non-inflammatory lesions on the face at Screening and Baseline • 3. […]
(§3) Severity definitions for IGA and PGA scales [5-point scales ranging from 0 (clear) to 4 (severe)] were the same. Lesion counts were performed and IGA and PGA were assessed at Screening, Baseline, and Weeks 1, 2, 4, 8, and 12/ET visits. […]

moderate facial acne [2] = assay: PERFECT 1, 12-week vehicle-controlled study, facial acne efficacy; assay type: in vivo, human
Experimental: as §1
Inclusion Criteria: • 1. Male or female patients 9 years or older. • 2. Moderate facial acne, defined as: Investigator Global Assessment (IGA) score of 3 on the face. Minimum of 20 inflammatory lesions and 25 non-inflammatory lesions on the face at Screening and Baseline • 3. Moderate truncal acne with Physician Global Assessment (PGA) score of 3 at Screening and Baseline. Minimum of 20 inflammatory lesions and 20 non-inflammatory lesions but no more than 100 non-inflammatory lesion counts on the trunk (shoulders, upper back and upper anterior chest) reachable to self-application of study drug by the subject at Screening and Baseline (optional criterion for subject between 9 and 11 years of age). • 4. Accessible treated areas of the trunk were defined for the study. The trunk anatomical region assessment was pre-defined by a size-fitted T-shirt (patent # US00D7580485, Jun. 7, 2016). This ensured consistency for study assessment areas throughout the study duration. • 5. […]
as §3

moderate facial acne [3] = assay: PERFECT 2, 12-week vehicle-controlled study, facial acne efficacy; assay type: in vivo, human
Experimental: as §1
Inclusion Criteria: • 1. Male or female patients 9 years or older. • 2. Moderate facial acne, defined as: Investigator Global Assessment (IGA) score of 3 on the face. Minimum of 20 inflammatory lesions and 25 non-inflammatory lesions on the face at Screening and Baseline • 3. Moderate truncal acne with Physician Global Assessment (PGA) score of 3 at Screening and Baseline. Minimum of 20 inflammatory lesions and 20 non-inflammatory lesions but no more than 100 non-inflammatory lesion counts on the trunk (shoulders, upper back and upper anterior chest) reachable to self-application of study drug by the subject at Screening and Baseline (optional criterion for subject between 9 and 11 years of age). • 4. Accessible treated areas of the trunk were defined for the study. The trunk anatomical region assessment was pre-defined by a size-fitted T-shirt (patent # US00D7580485, Jun. 7, 2016). This ensured consistency for study assessment areas throughout the study duration. • 5. For subjects aged 9 to 11 years, inclusion criteria regarding truncal acne were optional due to relative rarity of trunk involvement (compared with face) in this age group.
Primary Efficacy Endpoints • Success rate, defined as the percentage of subjects who achieved an IGA score on the face of 1 (Almost Clear) or 0 (Clear) and at least a 2-grade improvement from Baseline to Week 12. • Absolute and percent change (supportive efficacy endpoint) in facial inflammatory lesion count from Baseline to Week 12. • Absolute and percent change (supportive efficacy endpoint) in facial non-inflammatory lesion count from Baseline to Week 12.
Severity definitions for IGA and PGA scales [5-point scales ranging from 0 (clear) to 4 (severe)] were the same. Lesion counts were performed and IGA and PGA were assessed at Screening, Baseline, and Weeks 1, 2, 4, 8, and 12/ET visits.
Trifarotene or the vehicle were applied once daily in the evening for 12 weeks. […]

moderate facial acne [4] = assay: SATisFy 52-week study, facial acne efficacy and quality of life; assay type: in vivo, human
Experimental: (§4) A multi-center, 52-week, […] group study (SATisFy) with once daily trifarotene 50 μg/g was conducted in subjects with moderate facial and truncal acne. The screening/baseline weeks were 1, 2, 4, 8, 12, 20, 26, 38 & week 52. Inclusion/exclusion criteria and assessment are as described in Example 1, unless mentioned otherwise. Additional assessments may include subject's facial acne assessment, quality of life (DLQI and CDLQI) and standard facial and trunk photography.
(§5) Efficacy • Success rate: IGA/PGA score of 2 grade in improvement and Clear (0) or Almost Clear (1) • Grade change from baseline of IGA & PGA • Subject's assessment of facial acne improvement.

[5] = tested on: subjects with moderate facial and truncal acne; assay: PERFECT 1 safety: local tolerability and adverse events; assay type: in vivo, human
Experimental: as §1
(§6) Safety was assessed through adverse events, vital signs and routine laboratory testing. Safety assessments included treatment emergent adverse events (TEAE5), standard laboratory safety tests at screening and last study visit including hematology, blood chemistry, and urinalysis (Barc Central Laboratory, US and Belgium), physical examination, and monitoring of vital signs. Local tolerability signs/symptoms expected with a topical retinoid were collected separately from adverse events to better characterize the tolerability profile of trifarotene cream. These included erythema, scaling, dryness, and stinging/burning scored on a 4-point scale, none=0, mild=1, moderate=2, severe=3. Subjects were specifically queried at each study visit, including Baseline, for the presence of local signs or symptoms. Signs and/or symptoms of local cutaneous irritation assessed with the tolerability scale were considered to be Adverse Events if they were severe enough to lead to permanent discontinuation of study product treatment or required use of concomitant treatment including over-the-counter products (other than moisturizers). Subjects were assessed at screening/baseline and Weeks 1, 2, 4, 8 and 12.
(§7) Trifarotene or the vehicle were applied once daily in the evening for 12 weeks. The liberal use of a non-comedogenic and hypoallergenic moisturizer and non-comedogenic sunscreen was allowed. Trifarotene or the vehicle were not to be applied to cuts, abrasions, eczematous, or sunburned skin.

moderate truncal acne [6] = assay: SATisFy 52-week study, truncal acne efficacy; assay type: in vivo, human
Experimental: as §4, §5

moderate truncal acne [7] = assay: PERFECT 2, 12-week vehicle-controlled study, truncal acne efficacy; assay type: in vivo, human
Experimental: as §1, §2, §3

[8] = hepatic microsomes; cited from earlier work
keratinocytes = settings: cited from earlier work
[9] = tested on: subjects with moderate facial and truncal acne; assay: PERFECT 1 and PERFECT 2, statements for both studies together; assay type: in vivo, human
Experimental: Enrolled patients or caregivers received instruction about how to apply a thin layer of study drug daily at bedtime on the face and self-reachable trunk. Patients were also instructed to cleanse the skin and not to apply moisturizer one hour before or one hour after study drug application. Use of moisturizer was encouraged from the initiation of treatment. […] The patients were selected based on the following criteria. […] Lesion counts were performed and IGA and PGA were assessed at Screening, Baseline, and Weeks 1, 2, 4, 8, and 12/ET visits. Safety was assessed through adverse events, vital signs and routine laboratory testing. Safety assessments included treatment emergent adverse events (TEAE5), standard laboratory safety tests at screening and last study visit including hematology, blood chemistry, and urinalysis (Barc Central Laboratory, US and Belgium), physical examination, and monitoring of vital signs. Local tolerability signs/symptoms expected with a topical retinoid were collected separately from adverse events to better characterize the tolerability profile of trifarotene cream. […] Subjects were specifically queried at each study visit, including Baseline, for the presence of local signs or symptoms. Signs and/or symptoms of local cutaneous irritation assessed with the tolerability scale were considered to be Adverse Events if they were severe enough to lead to permanent discontinuation of study product treatment or required use of concomitant treatment including over-the-counter products (other than moisturizers). […] Trifarotene or the vehicle were applied once daily in the evening for 12 weeks. The liberal use of a non-comedogenic and hypoallergenic moisturizer and non-comedogenic sunscreen was allowed. Trifarotene or the vehicle were not to be applied to cuts, abrasions, eczematous, or sunburned skin.

[10] = tested on: subjects with moderate facial and truncal acne; assay: PERFECT 2 safety: local tolerability and adverse events; assay type: in vivo, human
Experimental: as §1, §6, §7

[11] = week 12, trunk population, SATisFy
[12] = week 52, trunk population, SATisFy

CC(C)(C)c1cc(-c2cc(-c3ccc(C(=O)O)cc3)ccc2OCCO)ccc1N1CCCC1 [trifarotene, 3″-tert-Butyl-4′-(2-hydroxy-ethoxy)-4″-pyrrolidin-1-yl-[1,1′,3′,1″]terphenyl-4-carboxylic acid]
statistically significantly superior reductions in inflammatory and non-inflammatory lesions on the trunk, starting by week (moderate truncal acne [1]; PERFECT 1): 4 week | PGA Success (%) (moderate truncal acne [1]; trunk, Week 12, PERFECT 1): 35.7% | statistically significant superior facial IGA success rates vs vehicle, at week (moderate facial acne [2]; PERFECT 1): 4 week | Inflammatory Lesions Mean Absolute Change from baseline (moderate facial acne [2]; face, Week 12, PERFECT 1): −19.0 | IGA Success (%) (moderate facial acne [2]; face, Week 12, PERFECT 1, 50 μg/g once daily): 29.4% | statistically significant superior facial IGA success rates vs vehicle, at week (moderate facial acne [3]; PERFECT 2): 8 week | Inflammatory Lesions Mean Absolute Change from baseline (moderate facial acne [3]; face, Week 12, PERFECT 2): −24.2 | Non-inflammatory Lesions Mean Absolute Change from baseline (moderate facial acne [3]; face, Week 12, PERFECT 2): −30.1 | IGA Success (%) (moderate facial acne [3]; face, Week 12, PERFECT 2, 50 μg/g once daily): 42.3% | success rates, facial acne (moderate facial acne [4]; Wk12 (166/401)): 41.4% | success rates, facial acne (moderate facial acne [4]; Wk26 (201/367)): 54.8% | success rates, facial acne (moderate facial acne [4]; Wk52 (233/350)): 66.6% | subjects who reported that acne had no effect on quality of life (moderate facial acne [4]; week 52 (92/171), 22.6% at Baseline): 53.8% | Severe AEs considered related to trifarotene therapy, subjects [5]: 6 subjects | Severe related AE: dermatitis allergic, number [5]: 1 | Severe related AE: skin irritation, number [5]: 4 | Severe related AE: sunburn, number [5]: 1 | overall success rate in same subject for truncal acne (moderate truncal acne [6]; Wk12 (87/396)): 22.0% | overall success rate in same subject for truncal acne (moderate truncal acne [6]; Wk20 (138/375)): 36.8% | overall success rate in same subject for truncal acne (moderate truncal acne [6]; Wk26 (157/363)): 43.3% | overall success rate in same subject for truncal acne (moderate truncal acne [6]; Wk38 (177/355)): 49.9% | overall success rate in same subject for truncal acne (moderate truncal acne [6]; Wk52 (199/344)): 57.9% | PGA success rates (moderate truncal acne [6]; [11]): 38.6% | trunk IGA success rates (moderate truncal acne [6]; [11]): 26.6% | success rates (IGA) (moderate truncal acne [6]; [12]): 65.1% | success rates (PGA) (moderate truncal acne [6]; [12]): 66.9% | statistically significantly superior reductions in inflammatory and non-inflammatory lesions on the trunk, starting by week (moderate truncal acne [7]; PERFECT 2): 2 week | PGA Success (%) (moderate truncal acne [7]; trunk, Week 12, PERFECT 2): 42.6% | metabolism [8]: rapidly metabolized | metabolic stability (keratinocytes): metabolically stable | changes in vital signs, physical exams and laboratory parameters ([9]; PERFECT 1 and PERFECT 2): no significant clinically relevant changes | serious AEs ([9]; PERFECT 1 and PERFECT 2): no AE was serious | success rates on the trunk statistically significant vs vehicle, starting at week ([9]; both studies): 8 week | facial lesion count reductions, statistical differences vs vehicle apparent as early as week ([9]; face): 1-2 week | Severe AEs considered related to trifarotene therapy, subjects [10]: 3 subjects | Severe related AE: application site erosion, number [10]: 1 | Severe related AE: application site irritation, number [10]: 1 | Severe related AE: application site pain, number [10]: 1
